Target: CYP3A4.1 (WT) (Homo sapiens, UniProt P08684)
Conditions: Figure 2, CYP3A4.1, TST 10–500 μM, n=5

CYP3A4.1 (WT), sequence (P08684 2-503): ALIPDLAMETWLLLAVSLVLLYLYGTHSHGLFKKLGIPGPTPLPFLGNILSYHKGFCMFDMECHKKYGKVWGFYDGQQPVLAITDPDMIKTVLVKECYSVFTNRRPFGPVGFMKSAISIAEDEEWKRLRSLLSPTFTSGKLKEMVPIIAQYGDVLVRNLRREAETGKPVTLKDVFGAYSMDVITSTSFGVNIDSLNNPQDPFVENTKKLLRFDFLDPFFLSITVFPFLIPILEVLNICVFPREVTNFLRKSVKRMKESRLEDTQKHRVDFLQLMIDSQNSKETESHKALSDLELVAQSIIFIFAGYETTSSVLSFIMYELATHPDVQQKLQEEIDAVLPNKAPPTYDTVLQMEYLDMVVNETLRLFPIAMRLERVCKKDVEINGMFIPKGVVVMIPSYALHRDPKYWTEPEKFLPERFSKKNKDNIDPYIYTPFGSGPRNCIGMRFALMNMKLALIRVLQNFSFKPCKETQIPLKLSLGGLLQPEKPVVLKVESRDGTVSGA

SMILES: OC(Cn1cncn1)(Cn1cncn1)c1ccc(F)cc1F [FCZ, fluconazole]
- Inhibition of CYP3A4 activity (TST metabolism): inhibited CYP3A4 activity in a concentration-dependent manner

Reference: PMC8144059 (Drug metabolism and pharmacokinetics, 2021)
